Results as given in publication PMC5641094, “A peptide antagonist of Prep1-p160 interaction improves ceramide-induced insulin resistance in skeletal muscle cells” (Oncotarget, 2017).

What was measured:
[1] = system: p160 mRNA; assay: Real-time RT-PCR of p160 mRNA in L6 cells; type: cell-based, rat; conditions: C2cer 10μM, 18h, normalized to GAPDH
Method: (§1) Figure 2 Effect of ceramides on Prep1 and p160 mRNA expression and of Prep1-p160 coprecipitation L6 cells were treated with C2cer (10μM) for 18h and Prep1 (A) or p160 (B) mRNA levels were analyzed by real-time RT-PCR analysis. Data were normalized by the amount of GAPDH mRNA, used as internal control. Bars represent the mean ± SD of three independent experiments, each performed in triplicate. (C) L6 cells were treated with cycloheximide (CHX) at 40μg/mL concentration for 18h and the lysates were analyzed by Western blot with anti-p160 and beta-actin. The autoradiograph shown is representative of three different experiments and subjected to densitometric analysis. (D) Protein lysates from L6 cells treated with C2cer as indicated, were immunoprecipitated with Prep1 antibody and immunoblotted with p160 or Prep1 antibodies. The autoradiograph shown is representative of three different experiments and subjected to densitometric analysis. Asterisks denote statistically significant differences (*p<0.05; **p<0.01).
(§2) Total cellular RNA was isolated from L6 cells by using the RNeasy kit (QIAGEN Sciences, Germany), according to manufacturer instructions. 1μg of cell RNA was reverse-transcribed using Superscript III Reverse Transcriptase (Life Technologies Carlsbad, CA, USA). PCR reactions were analyzed using IQTM SYBR Green Supermix (Bio-Rad, Hercules, CA). […]

[2] = system: L6 cells; assay: Cell toxicity in L6 cells; type: cell-based, rat; conditions: highest concentration 100μM, data not shown
[3] = system: Prep1 mRNA; assay: Real-time RT-PCR of Prep1 mRNA in L6 cells; type: cell-based, rat; conditions: C2cer 10μM, 18h, normalized to GAPDH, three experiments in triplicate
Method: as §1, §2

[4] = target: T1, p160_20-160 (Homo sapiens, UniProt Q9BQG0); assay: ELISA-like direct binding of biotinylated Prep1 peptides to coated p160_20-160; conditions: N-terminally biotinylated peptide variants; plate coated with p160_20-160 (0.1μM); streptavidin-HRP; one-site binding fit; triplicate, performed at least twice
T1 construct: were added to a plate coated with p160_20-160 (0.1μM); His6; made in house
T1 sequence (Q9BQG0 20-160): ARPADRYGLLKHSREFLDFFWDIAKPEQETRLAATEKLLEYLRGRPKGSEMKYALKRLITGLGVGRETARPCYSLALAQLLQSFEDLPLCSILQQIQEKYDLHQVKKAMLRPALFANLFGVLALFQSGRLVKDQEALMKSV
Description: To address the significance of the association between Prep1 and p160 mediated by C2cer, we generated a synthetic inhibitor of the Prep1/p160 interaction. […] The synthetic peptide covering such stretch of residues was therefore chosen to generate a potential inhibitor. […] Thus, we designed and chemically synthesized a peptide spanning residues 59-72, hereafter Prep1(59-72), which comprises the predicted α-helix and a short loop at the N-terminus (Supplementary Figure 2A, upper panel). […]
Figure 3 Design and in vitro effects of Prep1(54-72) peptide on Prep1/p160 association (A) Binding curves of Prep1(59-72) and Prep1(54-72) peptides to p160_20-160 by ELISA-like assays. […] (C) L6 cells were incubated with increasing concentrations of the fluorescein-conjugated peptide (FITC-Prep1(54-72)) and peptide uptake was detected by FACS analysis of fluorescein-labeled cells. […] Protein lysates were immunoprecipitated with Prep1 antibodies and analyzed by Western blot using antibodies for p160 or for Prep1. […] The blots were detected by ECL and autoradiography. […]
ELISA experiments were performed using an integrated platform for High-Throughput Screening (Hamilton Robotics, Bonaduz, CH) comprising a fully equipped Starlet 8 channel liquid handler, a robotic arm, a washer and a multi-wavelength plate reader. […] The binding was detected by anti-His HRP-conjugated antibody. […]

| Compound | effect on p160 mRNA levels [1] | toxicity for the cells [2] | increase of Prep1 mRNA levels [3] | Kd [4] |
| --- | --- | --- | --- | --- |
| CCCCCCCCCCCCC/C=C/[C@@H](O)[C@H](CO)NC(C)=O [C2cer, D-erythro-Sphingosine, N-Acetyl-, reference compound] | not affected | slightly toxic | 3.2 fold |  |
| Ac-KQAIYRHPLFPLLALLFEK-NH2 [Prep1(54-72)] |  |  |  | 180 nM |
